In one experiment the test system is IL-2. Briefly: T Cell stimulation (IL-2) in Jurkat cells with anti-CD3 and anti-CD28 co-stimulation. The class given is cell-based. The following applies: Homo sapiens, supernatant after 6 hours. The protocol: Compounds of formula (I) were tested for their T Cell stimulation (IL-2) in Jurkat cells with anti-CD3 and anti-CD28 co-stimulation. […] All compounds to be tested were dissolved in dimethyl sulfoxide. Cytotoxicity was evaluated with parallel Alamar Blue plates. Jurkat cells were seeded at 2×10^5 cells per well in 190 μL growth media in a 96-well plate. Cells were cultured in RPMI 1640 medium, 10% fetal bovine serum, and L-Glutamine with incubation at 37° C. with 5% carbon dioxide. After 1 hour of incubation the cells were stimulated with immobilized anti-CD3 (0.4 μg/well), anti-CD28 soluble (2 μg/mL). After 6 hours the sample supernatants were harvested and stored at −80° C. 50 μL samples of supernatant were tested for IL-2 using a Luminex® 1-plex assay.

For experiment [1], the system named is Mitochondria prepared from rat livers. Briefly: Mitochondrial permeability transition (Ca2+-induced mitochondrial swelling). In kind it is biochemical. The note with it: rat liver mitochondria, swelling induced by 150 micro molar Ca2+, compounds added 5 minutes before; read-out: MPT EC50 (inhibition of mitochondrial swelling). The protocol:
Mitochondrial permeability transition (MPT) was determined by measuring swelling of the mitochondria induced by Ca^2+. The procedure was adapted from the method described by Blattner et al., 2001, Analytical Biochem., 295: 220. Mitochondria were prepared from rat livers, which had been perfused with phosphate-buffered saline (PBS) to remove blood, using standard methods that utilized gentle homogenization in sucrose based buffer and then differential centrifugation to first remove cellular debris and then to pellet the mitochondria. Swelling was induced by 150 micro molar Ca^2+ (added from a concentrated solution of Calcium chloride) and was monitored by measuring the scattering at 535-540 nm. Representative compounds were added 5 minutes before swelling was induced. EC50 were determined by comparing swelling with and without the compounds of formula (I).

Numbered stars: 1 amine (or outer) side, 2 acyl side, 3 side chain; on linkers, the order of the positions; unused ones are H or OH. Square brackets hold non-standard residues; d marks the D form. Peptide text beside a SMILES is read from it. ξ: configuration not given here. X1 = CC(=O)OC(C)(C)C[C@@H](C(=O)[*:2])N(C)[*:1]; ξNMeBmt = C/C=C/C[C@@H](C)[C@@H](O)C(NC)C(=O)O; dNMeL = CN[C@H](CC(C)C)C(=O)O; dNMeV = CN[C@@H](C(=O)O)C(C)C; dAbu = CC[C@@H](N)C(=O)O; Sar = CNCC(=O)O

For orientation: EC50 means the concentration needed to bring the measured effect to its halfway point. The molecule `C/C=C/C[C@@H](C)[C@@H](O)C1C(=O)N[C@H](CC)C(=O)N(C)CC(=O)N(C)[C@@H](CC(C)(C)OC(C)=O)C(=O)N[C@H](C(C)C)C(=O)N(C)[C@H](CC(C)C)C(=O)N[C@H](C)C(=O)N[C@@H](C)C(=O)N(C)[C@H](CC(C)C)C(=O)N(C)[C@H](CC(C)C)C(=O)N(C)[C@H](C(C)C)C(=O)N1C` (some centres unmarked) [Compound E, [4′-acetoxy-N-methylleucine]^4cyclosporine A] (cyclo(A[dNMeL][dNMeL][dNMeV][ξNMeBmt][dAbu][Sar][X1][dV][dNMeL][dA])) showed an EC50 with IL-2 of under 0.01 µM. On to “[4′-hydroxy-N-methylleucine]^4cyclosporine A S-benzyl-4′-thiocarbonate [Compound X]”, for which the EC50 in experiment [1] is over 30 µM.

For the origin of these results see US8536114B2, “Macrocycles” (Scynexis, Inc., priority 2008, dated 2013).
